Reference: article PMC5080441, “A direct-sensing galactose chemoreceptor recently evolved in invasive strains of Campylobacter jejuni” (Nature Communications, 2016)

Biological target: Tlp11 (CcrG, Campylobacter ChemoReceptor for Galactose)
Test: SPR (Biacore); STD-NMR
Type: binding, Campylobacter jejuni

## OC[C@H]1OC(O)[C@H](O)[C@@H](O)[C@H]1O (stereo partly shown) [galactose]
  Kd: 17 µM
